Results: paper PMC5874726, “Comparison Study of Two Differently Clicked ^18F-Folates—Lipophilicity Plays a Key Role” (Pharmaceuticals, 2018)
Where two headings read alike, the source gives them in different places.

What was measured:
[1] = parameters: method as in doi:10.1039/C5MD00508F; conditions: pH 7.4, shake-flask; cited from earlier work
folate receptor (FR) = target: T1, folate receptor (FR) (Homo sapiens, UniProt P15328); test: Displacement assay using KB cells and [^3H]folic acid; type: binding
T1 construct: endogenous in cells; host or cells: KB cells (human, from the German Collection of Microorganisms and Cell Cultures)

[2] = pH 2, reversed-phase HPLC
Experimental: The octanol-water (buffer) partition coefficient of ^18F-Alakyne and ^18F-Ala-folate was determined using the standard shake-flask method. Relative lipophilicity (k’ values) was determined by HPLC with an isocratic acetonitrile-phosphoric acid buffer eluent system at pH 2.4 as described elsewhere.

[3] = parameters: method as in PMID 15745749; conditions: pH 2, reversed-phase HPLC; cited from earlier work

T1 sequence (P15328 25-257): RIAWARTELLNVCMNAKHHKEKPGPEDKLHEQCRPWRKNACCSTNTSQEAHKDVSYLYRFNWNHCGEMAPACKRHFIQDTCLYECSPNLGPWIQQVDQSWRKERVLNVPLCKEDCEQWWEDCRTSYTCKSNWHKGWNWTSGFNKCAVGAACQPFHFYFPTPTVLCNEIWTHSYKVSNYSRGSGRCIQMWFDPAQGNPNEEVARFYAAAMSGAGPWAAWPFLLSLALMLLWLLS

SMILES: O=C(CCOCCOCCOCC[18F])NCCC(=O)N1Cc2ccccc2C#Cc2ccccc21 [^18F-DBCO]
- logD7.4 Value [1]: 1.2 ± 0.07 [18]

SMILES: Nc1nc2ncc(CNc3ccc(C(=O)NC(CCC(=O)NCCOCCOCCOCCn4cc(CNC(CF)C(=O)O)nn4)C(=O)O)cc3)nc2c(=O)[nH]1 (stereo not drawn) [^19F-Ala-folate]
- Ki (folate receptor (FR); Cheng-Prusoff equation with Kd ([^3H]folic acid) = 1.0 nM): 5.5 ± 0.4 nM
- IC50 (folate receptor (FR); KB-cells, [^3H]folic acid): 6.4 ± 0.5 nM
- pIC50 (folate receptor (FR); KB-cells, [^3H]folic acid): 8.20 ± 0.05
- k′ Value [2]: 0.27

SMILES: Nc1nc(=O)c2nc(CNc3ccc(C(=O)N[C@@H](CCC(=O)O)C(=O)O)cc3)cnc2[nH]1 [native folic acid, folic acid]
- k′ Value [3]: 0.3 [5]
